The results in this text go back to PMC8236845.

Where a name gives a salt, the structure may show the parent alone.

The first assay has as its target binding of recombinant, trimeric SARS-CoV-2 spike protein to recombinant human ACE2 (Severe acute respiratory syndrome coronavirus 2, UniProt P0DTC2, K986P/R682G/R683S/R685S/V987P). Kind of assay: biochemical. More on the design: species or system SARS-CoV-2 / human.
Settings: not given
Usually % Inhibition stands for the relative decrease from the control value, in per cent. Regarding `CN1CC(=O)N2[C@H](c3ccc4c(c3)OCO4)c3[nH]c4ccccc4c3C[C@@H]2C1=O` [Tadalafil], the “% Inhibition” value was 96%.

For the compound `CC(=O)O[C@@]12CO[C@@H]1C[C@H](O)[C@@]1(C)C(=O)[C@H](O)C3=C(C)[C@@H](OC(=O)[C@H](O)[C@@H](NC(=O)OC(C)(C)C)c4ccccc4)C[C@@](O)([C@@H](OC(=O)c4ccccc4)[C@H]21)C3(C)C` [Docetaxel Trihydrate], the “% Inhibition” value came out at 95%. Same read-out and setting: to `CON=C(C(=O)NC1C(=O)N2C(C(=O)OCOC(=O)C(C)(C)C)=C(C)CSC12)c1csc(N)n1` (centres unmarked) [Cefetamet Pivoxil Hydrochloride] belongs 94%. Turning to `N#Cc1nn(-c2c(Cl)cc(C(F)(F)F)cc2Cl)c(N)c1[S+]([O-])C(F)(F)F` (centres unmarked) [Fipronil], the “% Inhibition” value was 91%.

In the case of `CO/N=C(\C(=O)N[C@@H]1C(=O)N2C(C(=O)OCOC(=O)C(C)(C)C)=C(/C=C\c3scnc3C)CS[C@H]12)c1csc(N)n1` [Cefditoren Pivoxil], the “% Inhibition” value is 96%. Take `CC(=O)O[C@@]12CO[C@@H]1C[C@H](O)[C@@]1(C)C(=O)[C@H](O)C3=C(C)[C@@H](OC(=O)[C@H](O)[C@@H](NC(=O)OC(C)(C)C)c4ccccc4)C[C@@](O)([C@@H](OC(=O)c4ccccc4)[C@H]21)C3(C)C` [Docetaxel]: the “% Inhibition, Screen” value came to 98%.

For the compound `CNC(=O)c1cc(Oc2ccc(NC(=O)Nc3ccc(Cl)c(C(F)(F)F)c3)cc2)ccn1` [Sorafenib Tosylate], the “% Inhibition, Screen” value amounted to 21%.

Broadly, the IC50 is the midpoint of a concentration-inhibition curve. On to `CN1CCN(c2ccc(C(=O)Nc3n[nH]c4ccc(Cc5cc(F)cc(F)c5)cc34)c(NC3CCOCC3)c2)CC1` [Entrectinib], for which the “% Inhibition” value worked out at 90% and the half-inhibitory concentration (IC50) was found to be 58.4 µM. Take `Cc1cn(-c2cc(NC(=O)c3ccc(C)c(Nc4nccc(-c5cccnc5)n4)c3)cc(C(F)(F)F)c2)cn1` [Nilotinib AMN-107, Nilotinib]: the “% Inhibition” value is listed as 99%. The same measure, in the same setting: under `Nc1nc(N)c2nc(-c3ccccc3)c(N)nc2n1` [Triamterene] stands 91%. As to `OC(c1cc(C(F)(F)F)nc2c(C(F)(F)F)cccc12)C1CCCCN1` (centres unmarked) [Mefloquine], the “% inhibition in first-round screen” value came to 77%. As for `COc1cc([C@@H]2c3cc4c(cc3[C@@H](O[C@@H]3O[C@@H]5CO[C@@H](c6cccs6)O[C@H]5[C@H](O)[C@H]3O)[C@H]3COC(=O)[C@H]23)OCO4)cc(OC)c1O` [Teniposide], the “% Inhibition” value stood at 97%. Turning to `O=C(O)c1cn(C2CC2)c2cc(N3CCNCC3)c(F)cc2c1=O` [Ciprofloxacin Hydrochloride Hydrate], the “% Inhibition” value was found to be 93%. On the same count and under the same terms, under `CCOC(=O)c1c(N)sc2c1CCN(Cc1ccccc1)C2.Cl` [Tinoridine Hydrochloride] stands 90%; under `C[C@]12CC[C@@H]3c4ccc(OC(=O)c5ccccc5)cc4CC[C@H]3[C@@H]1CC[C@@H]2O` [Estradiol benzoate], 93%. The same measure, in the same setting: to `CN1C[C@H](C(=O)N[C@]2(C)O[C@@]3(O)[C@@H]4CCCN4C(=O)[C@H](Cc4ccccc4)N3C2=O)C[C@@H]2c3cccc4[nH]cc(c34)C[C@H]21` [Dihydroergotamine Mesylate] belongs 94%. Same read-out and setting: under `Cc1nc(Nc2ncc(C(=O)Nc3c(C)cccc3Cl)s2)cc(N2CCN(CCO)CC2)n1.Cl` [Dasatinib HCl] stands 98%; under `CO[C@H]1C[C@H](O[C@@H]2/C(C)=C/C[C@@H]3C[C@@H](C[C@]4(CC[C@H](C)[C@@H](C5CCCCC5)O4)O3)OC(=O)[C@@H]3C=C(C)/C(=N/O)[C@H]4OC/C(=C\C=C\[C@@H]2C)[C@]43O)O[C@@H](C)[C@@H]1O` [Selamectin], 97%; under `C=C(NC(=O)C(=C)NC(=O)c1csc(C2=N[C@@H]3c4csc(n4)[C@H]4NC(=O)c5csc(n5)[C@H]([C@](C)(O)[C@@H](C)O)NC(=O)[C@H]5CSC(=N5)/C(=C/C)NC(=O)[C@H]([C@@H](C)O)NC(=O)c5csc(n5)[C@]3(CC2)NC(=O)[C@H](C)NC(=O)C(=C)NC(=O)[C@H](C)NC(=O)[C@H]([C@@H](C)CC)N[C@@H]2C=Cc3c([C@H](C)O)cc(nc3[C@H]2O)C(=O)O[C@@H]4C)n1)C(N)=O` [Thiostrepton], 99%.

Consider Avermectin B1, for which the “% Inhibition” value is 98%.

The same assay, now with this note: read-out: EC50 (corrected).
As usually defined, the EC50 is the concentration that produces a half-maximal response. Turning to `CCOC(=O)c1c(N)sc2c1CCN(Cc1ccccc1)C2.Cl` [Tinoridine Hydrochloride], the EC50 was 257 µM. Consider `Cc1nc(Nc2ncc(C(=O)Nc3c(C)cccc3Cl)s2)cc(N2CCN(CCO)CC2)n1.Cl` [Dasatinib HCl], for which the EC50 came out at 65.9 µM.
